Results from US9120749B2, “Quinoline derivatives and MELK inhibitors containing the same” (ONCOTHERAPY SCIENCE, INC., priority 2010, dated 2015).
Where a name gives a salt, the structure may show the parent alone. Read-outs that look alike come from different tables or passages of the source.

Tests used:
HT-1197 cells = assay: Cell-based assay: anti-proliferative activity, Cell Counting Kit-8, 72 hours (HT-1197, negative control without MELK expression); conditions: Homo sapiens, HT1197, 72 h, HT1197 cells (negative control), 72 hours
Summary of the method: (§1)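 Target-specific cytotoxicity: seeded cells treated with MELK inhibitor candidates for 72 h, proliferation quantified via CCK-8, IC50 fitted.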

DU4475 cells = assay: Cell-based assay: anti-proliferative activity, Cell Counting Kit-8, 72 hours (DU4475); conditions: Homo sapiens, DU-4475, 72 h
MELK = MELK (Homo sapiens, UniProt Q14680); assay: Kinase assay: MELK activity, phosphorylation of FITC-labeled histone H3 peptide measured by IMAP fluorescence polarization; format: biochemical; conditions: read-out: IC50 (μM) (kinase assay)
Chain of MELK (Q14680 whole entry, looked up): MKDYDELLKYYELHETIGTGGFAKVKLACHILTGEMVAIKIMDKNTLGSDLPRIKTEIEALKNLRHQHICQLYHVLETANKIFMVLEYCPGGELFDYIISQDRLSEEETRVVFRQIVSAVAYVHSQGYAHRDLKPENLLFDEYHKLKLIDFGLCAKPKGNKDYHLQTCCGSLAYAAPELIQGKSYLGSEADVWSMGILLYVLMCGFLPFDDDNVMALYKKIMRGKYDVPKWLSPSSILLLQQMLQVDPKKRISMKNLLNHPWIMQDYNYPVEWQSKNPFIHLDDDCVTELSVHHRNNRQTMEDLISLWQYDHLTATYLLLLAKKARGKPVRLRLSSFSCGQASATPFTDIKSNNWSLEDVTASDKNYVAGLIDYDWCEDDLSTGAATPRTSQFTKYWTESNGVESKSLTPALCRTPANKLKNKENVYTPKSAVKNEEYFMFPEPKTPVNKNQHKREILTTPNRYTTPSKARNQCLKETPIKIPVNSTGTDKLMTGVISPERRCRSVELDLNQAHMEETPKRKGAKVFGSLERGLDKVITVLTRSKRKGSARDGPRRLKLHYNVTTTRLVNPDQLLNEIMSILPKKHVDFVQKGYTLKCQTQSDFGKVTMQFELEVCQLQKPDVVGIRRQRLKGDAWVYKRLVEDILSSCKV
Summary of the method: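 Polarization of fluorescence served as the signal for MELK turnover of FITC-conjugated histone H3 peptide. Binding solution quenched each reaction, and plates stood 0.5 hour at room temperature before reading.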

T47D cells = assay: Cell-based assay: anti-proliferative activity, Cell Counting Kit-8, 72 hours (T47D); conditions: Homo sapiens, T47D, 72 h
Summary of the method: as §1

A549 cells = assay: Cell-based assay: anti-proliferative activity, Cell Counting Kit-8, 72 hours (A549); conditions: Homo sapiens, A549, 72 h, 72 hours
Summary of the method: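 A549 cells seeded in 96-well plates and exposed to candidate inhibitors for 72 hours. Growth measured with Cell Counting Kit-8; IC50 values calculated from the dose response.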

Row | Structure (SMILES) | IC50 (HT-1197 cells) | IC50 (DU4475 cells) | IC50 (MELK) | IC50 (T47D cells) | IC50 (A549 cells) | IC50 (MELK; hydrochloride)
1 | COc1cc(-c2ccc3ncc(C(=O)C4CC4)c(NC4C[C@H]5CC[C@@H](C4)N5)c3c2)cc(Cl)c1O (stereo partly drawn) [Example 579, (4-((1R,3r,5S)-8-azabicyclo[3.2.1]octan-3-ylamino)-6-(3-chloro-4-hydroxy-5-methoxyphenyl)quinolin-3-yl)(cyclopropyl)methanone] | 7.8 µM | 0.14 µM | 0.0042 µM | 0.17 µM | 0.27 µM | 
2 | O=C(c1cnc2ccc(-c3cc(Cl)c(O)c(Cl)c3)cc2c1N[C@H]1C[C@H]2CC[C@@H](C1)N2)C1CC1 [Example 580, (4-((1R,3r,5S)-8-azabicyclo[3.2.1]octan-3-ylamino)-6-(3,5-dichloro-4-hydroxyphenyl)quinolin-3-yl)(cyclopropyl)methanone] | 4.1 µM | 0.12 µM | 0.0045 µM | 0.25 µM | 0.69 µM | 
3 | COc1cc(-c2ccc3ncc(C(=O)C4CC4)c(Nc4cnc(N5CCC(N)C5)nc4)c3c2)cc(Cl)c1O (stereo not shown) [Example 582, (4-(2-(3-aminopyrrolidin-1-yl)pyrimidin-5-ylamino)-6-(3-chloro-4-hydroxy-5-methoxyphenyl)quinolin-3-yl)(cyclopropyl)methanone] | 1.1 µM | 0.064 µM | 0.0031 µM | 0.052 µM | 0.097 µM | 
4 | C=CCN(CC=C)C1(C)CCC(Nc2c(C(=O)C3CC3)cnc3ccc(-c4cc(Cl)c(O)c(Cl)c4)cc23)CC1 (stereo not shown) [Example 583, Cyclopropyl{4-[4-(diallylamino)-4-methylcyclohexylamino]-6-(3,5-dichloro-4-hydroxyphenyl)quinolin-3-yl}methanone] | 10 µM | 2.3 µM | 0.089 µM | 2.6 µM | 3.1 µM | 
5 | O=C(c1cnc2ccc(-c3cc(Cl)c(O)c(Cl)c3)cc2c1N[C@H]1CC[C@H](CN2CCCC2)CC1)C1CC1 [Example 584, cyclopropyl(6-(3,5-dichloro-4-hydroxyphenyl)-4-((trans-4-(pyrrolidin-1-ylmethyl)cyclohexyl)amino)quinolin-3-yl)methanone] | 0.86 µM | 0.053 µM | 0.0016 µM | 0.13 µM | 0.071 µM | 
6 | COc1cc(-c2ccc3ncc(C(=O)C4CC4)c(N[C@H]4CC[C@H](CN5CCCC5)CC4)c3c2)cc(Cl)c1O [Example 586] | 3 µM | 0.19 µM | 0.0028 µM | 0.38 µM | 0.2 µM | 
7 | O=C(c1cnc2ccc(-c3cc(F)c(O)c(Cl)c3)cc2c1N[C@H]1CC[C@H](CN2CCCC2)CC1)C1CC1 [Example 587, (6-(3-chloro-5-fluoro-4-hydroxyphenyl)-4-((trans-4-(pyrrolidin-1-ylmethyl)cyclohexyl)amino)quinolin-3-yl)(cyclopropyl)methanone] | 0.55 µM | 0.065 µM | 0.0032 µM | 0.11 µM | 0.084 µM | 
8 | COc1cc(-c2ccc3ncc(C(=O)C4CC4)c(Nc4ccc(N)nc4)c3c2)cc(Cl)c1O [Example 589, (4-(6-aminopyridin-3-ylamino)-6-(3-chloro-4-hydroxy-5-methoxyphenyl)quinolin-3-yl)(cyclopropyl)methanone] | 1.4 µM | 0.21 µM | 0.011 µM | 0.61 µM | 0.18 µM | 
9 | Nc1ccc(Nc2c(C(=O)C3CC3)cnc3ccc(-c4cc(Cl)c(O)c(Cl)c4)cc23)cn1 [Example 590, (4-(6-aminopyridin-3-ylamino)-6-(3,5-dichloro-4-hydroxyphenyl)quinolin-3-yl)(cyclopropyl)methanone] | 2.2 µM | 0.19 µM | 0.014 µM | 0.48 µM | 0.48 µM | 
10 | Nc1ccc(Nc2c(C(=O)C3CC3)cnc3ccc(-c4cc(F)c(O)c(Cl)c4)cc23)cn1 [Example 591, (4-(6-aminopyridin-3-ylamino)-6-(3-chloro-5-fluoro-4-hydroxyphenyl)quinolin-3-yl)(cyclopropyl)methanone] | 1.4 µM | 0.12 µM | 0.032 µM | 0.26 µM | 0.36 µM | 
11 | CN1CCC(n2cc(Nc3c(C(=O)C4CC4)cnc4ccc(-c5cc(F)c(O)c(Cl)c5)cc34)cn2)CC1 [Example 592, (6-(3-Chloro-5-fluoro-4-hydroxyphenyl)-4-(1-(1-methylpiperidin-4-yl)-1H-pyrazol-4-ylamino)quinolin-3-yl)(cyclopropyl)methanone] | 2.8 µM | 0.068 µM | 0.0015 µM | 0.24 µM | 0.13 µM | 
12 | CN1CCC(n2cc(Nc3c(C(=O)C4CC4)cnc4ccc(-c5cc(Cl)c(O)c(Cl)c5)cc34)cn2)CC1 [Example 593, Cyclopropyl(6-(3,5-dichloro-4-hydroxyphenyl)-4-(1-(1-methylpiperidin-4-yl)-1H-pyrazol-4-ylamino)quinolin-3-yl)methanone] | 4.3 µM | 0.044 µM | 0.0013 µM | 0.32 µM | 0.094 µM | 
13 | CC(=O)c1cnc2ccc(-c3cc(F)c(O)c(Cl)c3)cc2c1Nc1cnc(N2CCNCC2)nc1 [Example 594, 1-(6-(3-chloro-5-fluoro-4-hydroxyphenyl)-4-(2-(piperazin-1-yl)pyrimidin-5-ylamino)quinolin-3-yl)ethanone] | 0.66 µM | 0.048 µM | 0.0048 µM | 0.025 µM | 0.063 µM | 
14 | COc1cc(-c2ccc3ncc(C(=O)C4CC4)c(N4CCC(C5CCNCC5)CC4)c3c2)cc(Cl)c1O [Example 595, (4-(4,4′-bipiperidin-1-yl)-6-(3-chloro-4-hydroxy-5-methoxyphenyl)quinolin-3-yl)(cyclopropyl)methanone] | 3.4 µM | 0.64 µM | 0.0042 µM | 0.41 µM | 0.57 µM | 
15 | O=C(c1cnc2ccc(-c3cc(Cl)c(O)c(Cl)c3)cc2c1N1CCC(C2CCNCC2)CC1)C1CC1 [Example 596, (4-(4,4′-bipiperidin-1-yl)-6-(3,5-dichloro-4-hydroxyphenyl)quinolin-3-yl)(cyclopropyl)methanone] | 5.1 µM | 0.14 µM | 0.0016 µM | 0.18 µM | 1.5 µM | 
16 | CCCC(=O)c1cnc2ccc(-c3cc(F)c(O)c(Cl)c3)cc2c1N[C@H]1CC[C@H](CN(C)C)CC1 [Example 597, 1-{6-(3-Chloro-5-fluoro-4-hydroxyphenyl)-4-[trans-4-((dimethylamino)methyl)cyclohexylamino]quinolin-3-yl}butan-1-one] | 1.1 µM | 0.083 µM | 0.0073 µM | 0.11 µM | 0.16 µM | 
17 | COC1CCN(C[C@H]2CC[C@H](Nc3c(C(=O)C4CC4)cnc4ccc(-c5cc(Cl)c(O)c(Cl)c5)cc34)CC2)C1 (stereo partly drawn) [Example 598, cyclopropyl(6-(3,5-dichloro-4-hydroxyphenyl)-4-((trans-4-((3-methoxypyrrolidin-1-yl)methyl)cyclohexyl)amino)quinolin-3-yl)methanone] | 1 µM | 0.066 µM | 0.0023 µM | 0.18 µM | 0.13 µM | 
18 | COc1cc(-c2ccc3ncc(C(=O)C4CC4)c(N[C@H]4CC[C@H](CN5CCC(OC)C5)CC4)c3c2)cc(Cl)c1O (stereo partly shown) [Example 599] | 2.8 µM | 0.37 µM | 0.005 µM | 0.51 µM | 0.54 µM | 
19 | O=C(c1cnc2ccc(-c3cc(Cl)c(O)c(Cl)c3)cc2c1N[C@H]1CC[C@H](CN2CCC(O)C2)CC1)C1CC1 (stereo partly drawn) [Example 600, cyclopropyl(6-(3,5-dichloro-4-hydroxyphenyl)-4-((trans-4-((3-hydroxypyrrolidin-1-yl)methyl)cyclohexyl)amino)quinolin-3-yl)methanone] | 0.76 µM | 0.029 µM | 0.00073 µM | 0.078 µM | 0.12 µM | 
20 | CC(C)(N)c1ccc(Nc2c(C(=O)C3CC3)cnc3ccc(-c4cc(Cl)c(O)c(Cl)c4)cc23)cc1 [Example 601, {4-[4-(2-Aminopropan-2-yl)phenylamino]-6-(3,5-dichloro-4-hydroxyphenyl)quinolin-3-yl}(cyclopropyl)methanone hydrochloride] | 0.42 µM | 0.023 µM |  | 0.09 µM | 0.047 µM | 0.0014 µM
21 | COc1cc(-c2ccc3ncc(C(=O)C4CC4)c(Nc4ccc(C(C)(C)N)cc4)c3c2)cc(Cl)c1O [Example 603, (4-(4-(2-aminopropan-2-yl)phenylamino)-6-(3-chloro-4-hydroxy-5-methoxyphenyl)quinolin-3-yl)(cyclopropyl)methanone] | 1.7 µM | 0.37 µM | 0.0036 µM | 0.52 µM | 0.64 µM | 
22 | CCCC(=O)c1cnc2ccc(-c3cc(Cl)c(O)c(Cl)c3)cc2c1N[C@H]1CC[C@H](CN(C)C)CC1 [Example 605, 1-{6-(3,5-Dichloro-4-hydroxyphenyl)-4-[trans-4-((dimethylamino)methyl)cylohexylamino]quinolin-3-yl}butan-1-one] | 1.1 µM | 0.051 µM | 0.002 µM | 0.095 µM | 0.13 µM | 
23 | COc1cc(-c2ccc3ncc(C(=O)C(C)C)c(N[C@H]4CC[C@H](CN(C)C)CC4)c3c2)cc(Cl)c1O [Example 606] | 1.1 µM | 0.34 µM | 0.0063 µM | 0.65 µM | 0.65 µM | 
